Assay results published in US6906205B2, “Spiro and dispiro 1,2,4-trioxolane antimalarials” (Medicines for Malaria Venture MMV, priority 2002, dated 2005).
In brackets after ≈: the same amount, converted by molar mass.

Legend:
[1] = test system: P. falciparum K1 strain (Thailand resistant to chloroquine); assay: semiautomated microdilution assay, [3H]-hypoxanthine incorporation, K1 strain; type: cell-based, Plasmodium falciparum; details: K1 strain, 72 h incubation
Protocol: (§1) Various OZ compounds were tested by the semiautomated microdilution assay against intraerythrocytic forms of Plasmodium falciparum derived from asynchronous stock cultures.
(§2) Fifty percent inhibitory concentration (IC50) were estimated by Logit regression analysis.

[2] = test system: P. falciparum NF54 strain (sensitive to standard antimalarials); assay: semiautomated microdilution assay, [3H]-hypoxanthine incorporation, NF54 strain; type: cell-based, Plasmodium falciparum; details: NF54 strain, 72 h incubation
Protocol: as §1, §2

[3] = test system: ANKA strain of P. berghei; assay: single dose STI in vivo screen in infected mice; design: species or system Plasmodium berghei; details: for Activity (%) po / Activity (%) sc / Activity (%) SSVpo / Activity (%) 3 mg/kg SSV po / Activity (%) 10 mg/kg SSV po: percent reduction in parasitemia day 3 post-infection; for Activity (%) po / Survival (days) po: single 10 mg/kg po in 3% ethanol and 7% Tween 80; for Activity (%) po / Activity (%) sc / Activity (%) SSVpo: mice; for Activity (%) sc / Survival (days) sc: single 10 mg/kg sc in 3% ethanol and 7% Tween 80; for Survival (days) po / Survival (days) sc / Survival (days) SSVpo: untreated control 5.6 ± 0.3; for Activity (%) SSVpo: single po dose in standard suspending vehicle (SSV); for Survival (days) SSVpo: single po dose in SSV; for Activity (%) 3 mg/kg SSV po: single 3 mg/kg po in SSV; for Survival (days) 10 mg/kg SSV po / Activity (%) 10 mg/kg SSV po: single 10 mg/kg po in SSV
Outline: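 Groups of 3-5 Moro SPF or NMRI mice infected with the ANKA strain of P. berghei received a single dose of trioxolane on day one post-infection. The compound was given in 3% ethanol and 7% Tween 80 or in SSV (0.5% w/v CMC, 0.5% v/v benzyl alcohol, 0.4% v/v Tween 80, 0.9% w/v sodium chloride in water). Antimalarial activity was scored as percent reduction in parasitemia on day three and as survival time versus untreated controls. Survival to day 30 counted as cure.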

## CC(=O)OCC(=O)N1CCC2(CC1)OOC1(O2)C2CC3CC(C2)CC1C3 (centres unmarked) [OZ82]
[1]
  IC50 (ng/ml) K1: 0.48 ng/mL (≈ 1.31 nM)
[2]
  IC50 (ng/ml) NF54: 1.2 ng/mL (≈ 3.28 nM)
[3]
  Activity (%) po: 91%
  Activity (%) sc: 79%
  Survival (days) po: 7.3 days
  Survival (days) sc: 7.0 days

## COC(=O)c1ccc(C2(c3ccccc3)OOC3(O2)C2CC4CC(C2)CC3C4)cc1 (centres unmarked) [OZ138]
[1]
  IC50 (ng/ml) K1: 10 ng/mL (≈ 24.6 nM)
[2]
  IC50 (ng/ml) NF54: 19 ng/mL (≈ 46.7 nM)
[3]
  Activity (%) po: 0%
  Activity (%) sc: 7%
  Activity (%) SSVpo: 5%
  Survival (days) po: 5.7 days
  Survival (days) sc: 6.3 days
  Survival (days) SSVpo: 6.3 days

## O=C(C[C@H]1CC[C@]2(CC1)OO[C@]1(O2)C2CC3CC(C2)CC1C3)N1CCC(O)CC1 [OZ297]
[1]
  IC50 (ng/ml) K1: 0.49 ng/mL (≈ 1.21 nM)
[2]
  IC50 (ng/ml) NF54: 0.76 ng/mL (≈ 1.87 nM)
[3]
  Activity (%) 3 mg/kg SSV po: 83%
  Survival (days) 10 mg/kg SSV po: 9.8 days

## NNC(=O)C[C@H]1CC[C@]2(CC1)OO[C@]1(O2)C2CC3CC(C2)CC1C3 [OZ340]
[1]
  IC50 (ng/ml) K1: 4.9 ng/mL (≈ 14.6 nM)
[2]
  IC50 (ng/ml) NF54: 2.9 ng/mL (≈ 8.62 nM)
[3]
  Activity (%) 3 mg/kg SSV po: 36%
  Activity (%) 10 mg/kg SSV po: 93%
  Survival (days) 10 mg/kg SSV po: 9.2 days

## O=C1OC2(CCC3(CC2)OOC2(O3)C3CC4CC(C3)CC2C4)c2ccccc21 (centres unmarked) [OZ149]
[1]
  IC50 (ng/ml) K1: 8.0 ng/mL (≈ 20.9 nM)
[2]
  IC50 (ng/ml) NF54: 8.8 ng/mL (≈ 23 nM)
[3]
  Activity (%) po: 64%
  Activity (%) sc: 87%
  Activity (%) SSVpo: 3%
  Survival (days) po: 7.7 days
  Survival (days) sc: 14.3 days
  Survival (days) SSVpo: 6.0 days

## O=C(NC[C@H]1CC[C@]2(CC1)OOC1(O2)C2CC3CC(C2)CC1C3)c1cc[n+]([O-])cc1 (some centres unmarked) [OZ264]
[1]
  IC50 (ng/ml) K1: 1.2 ng/mL (≈ 2.9 nM)
[2]
  IC50 (ng/ml) NF54: 1.5 ng/mL (≈ 3.62 nM)
[3]
  Activity (%) po: 99.61%
  Activity (%) sc: 99.97%
  Activity (%) SSVpo: 99.92%
  Survival (days) po: 11.0 days
  Survival (days) sc: 13.7 days
  Survival (days) SSVpo: 10.3 days

## CC1(C)COC(c2ccc([C@H]3CC[C@]4(CC3)OOC3(O4)C4CC5CC(C4)CC3C5)cc2)=N1 (some centres unmarked) [OZ180]
[1]
  IC50 (ng/ml) K1: 3.7 ng/mL (≈ 8.46 nM)
[2]
  IC50 (ng/ml) NF54: 2.8 ng/mL (≈ 6.4 nM)
[3]; 10 mg/kg
  Activity (%) po: 99.91%
  Activity (%) sc: 65%
  Survival (days) po: 13.7 days
  Survival (days) sc: 10.3 days
[3]
  Activity (%) SSVpo: 97%
  Survival (days) SSVpo: 12.7 days

## CCOC(=O)N1C2CCC1CC1(C2)OOC2(O1)C1CC3CC(C1)CC2C3 (centres unmarked) [OZ110]
[1]
  IC50 (ng/ml) K1: 5.3 ng/mL (≈ 14.6 nM)
[2]
  IC50 (ng/ml) NF54: 2.1 ng/mL (≈ 5.78 nM)
[3]
  Activity (%) po: 50%
  Activity (%) sc: 97.97%
  Activity (%) SSVpo: 0%
  Survival (days) po: 6.7 days
  Survival (days) sc: 7.7 days
  Survival (days) SSVpo: 5.3 days

## NCC1(c2ccccc2)CCC2(CC1)OOC1(O2)C2CC3CC(C2)CC1C3 (centres unmarked) [OZ117]
[1]
  IC50 (ng/ml) K1: 2.1 ng/mL (≈ 5.68 nM)
[2]
  IC50 (ng/ml) NF54: 1.2 ng/mL (≈ 3.25 nM)
[3]
  Activity (%) po: 95%
  Activity (%) sc: 99.94%
  Activity (%) SSVpo: 96%
  Survival (days) po: 7.0 days
  Survival (days) sc: 8.7 days
  Survival (days) SSVpo: 7.7 days

## O=C1CNC(=O)N1C[C@H]1CC[C@]2(CC1)OOC1(O2)C2CC3CC(C2)CC1C3 (some centres unmarked) [OZ206]
[1]
  IC50 (ng/ml) K1: 1.0 ng/mL (≈ 2.66 nM)
[2]
  IC50 (ng/ml) NF54: 2.7 ng/mL (≈ 7.17 nM)
[3]
  Activity (%) po: 93%
  Activity (%) sc: 91%
  Activity (%) SSVpo: 92%
  Survival (days) po: 8.0 days
  Survival (days) sc: 9.7 days
  Survival (days) SSVpo: 8.7 days

## CC(C)(CO)NC(=O)[C@H]1CC[C@]2(CC1)OOC1(O2)C2CC3CC(C2)CC1C3 (some centres unmarked) [OZ129]
[1]
  IC50 (ng/ml) K1: 10/>10 ng/ml
[2]
  IC50 (ng/ml) NF54: 10/>10 ng/ml
[3]
  Activity (%) po: 0%
  Activity (%) sc: 0%
  Activity (%) SSVpo: 4%
  Survival (days) po: 5.3 days
  Survival (days) sc: 5.7 days
  Survival (days) SSVpo: 5.7 days

## OC1(Cc2ccccn2)CCC2(CC1)OOC1(O2)C2CC3CC(C2)CC1C3 (centres unmarked) [OZ275]
[1]
  IC50 (ng/ml) K1: 0.66 ng/mL (≈ 1.78 nM)
[2]
  IC50 (ng/ml) NF54: 0.74 ng/mL (≈ 1.99 nM)
[3]
  Activity (%) 10 mg/kg SSV po: 68/ND %
  Survival (days) 10 mg/kg SSV po: 7.3/ND days

## O=C(O)c1ccc(C2(c3ccc(C(=O)O)cc3)OOC3(O2)C2CC4CC(C2)CC3C4)cc1 (centres unmarked) [OZ135]
[1]
  IC50 (ng/ml) K1: >100/>100 ng/ml
[2]
  IC50 (ng/ml) NF54: >100/>100 ng/ml
[3]
  Activity (%) po: 1%
  Activity (%) sc: 0%
  Activity (%) SSVpo: 0%
  Survival (days) po: 5.3/5.3/5.3 days
  Survival (days) sc: 5.3/5.3/5.3 days
  Survival (days) SSVpo: 5.3/5.3/5.3 days

## O=C(N1CCCC1)N1CCC2(CC1)OOC1(O2)C2CC3CC(C2)CC1C3 (centres unmarked) [OZ203]
[1]
  IC50 (ng/ml) K1: 3.9 ng/mL (≈ 10.8 nM)
[2]
  IC50 (ng/ml) NF54: 6.7 ng/mL (≈ 18.5 nM)
[3]
  Activity (%) po: 87%
  Activity (%) sc: 99.72%
  Activity (%) SSVpo: 99.42%
  Survival (days) po: 7.3 days
  Survival (days) sc: 9.7 days
  Survival (days) SSVpo: 8.7 days

## O=C(O)C1(c2ccccc2)CCC2(CC1)OOC1(O2)C2CC3CC(C2)CC1C3 (centres unmarked) [OZ99]
[1]
  IC50 (ng/ml) K1: 77 ng/mL (≈ 200 nM)
[2]
  IC50 (ng/ml) NF54: 27 ng/mL (≈ 70.2 nM)
[3]
  Activity (%) po: 30%
  Activity (%) sc: 36%
  Activity (%) SSVpo: 40%
  Survival (days) po: 6.3 days
  Survival (days) sc: 6.3 days
  Survival (days) SSVpo: 5.7 days

## C1CCC2(CC1)OOC1(CCCCC1)O2 [OZ01]
[1]
  IC50 (ng/ml) K1: >100/>100 ng/ml
[2]
  IC50 (ng/ml) NF54: >100/>100 ng/ml
[3]
  Activity (%) po: 0/NA/0^1%
  Activity (%) sc: 0/NA/0^1%
  Survival (days) po: 5.3/NA/5.3^1 days
  Survival (days) sc: 5.3/NA/5.3^1 days

## Fc1c(F)c(F)c(C2(c3c(F)c(F)c(F)c(F)c3F)OOC3(O2)C2CC4CC(C2)CC3C4)c(F)c1F (centres unmarked) [OZ45]
[1]
  IC50 (ng/ml) K1: 17 ng/mL (≈ 32.2 nM)
[2]
  IC50 (ng/ml) NF54: 27 ng/mL (≈ 51.1 nM)
[3]
  Activity (%) po: 15%
  Activity (%) sc: 16%
  Survival (days) po: 6.0 days
  Survival (days) sc: 5.0 days

## O=C1c2ccccc2C(=O)N1C[C@H]1CC[C@@]2(CC1)OOC1(O2)C2CC3CC(C2)CC1C3 (some centres unmarked) [OZ167]
[1]
  IC50 (ng/ml) K1: 6.7 ng/mL (≈ 15.8 nM)
[2]
  IC50 (ng/ml) NF54: > 10 ng/mL
[3]
  Activity (%) po: 0%
  Activity (%) sc: 97%
  Activity (%) SSVpo: 6%
  Survival (days) po: 6.0 days
  Survival (days) sc: 7.3 days
  Survival (days) SSVpo: 6.0 days

## O=C(CCl)N1CCC2(CC1)OOC1(O2)C2CC3CC(C2)CC1C3 (centres unmarked) [OZ87]
[1]
  IC50 (ng/ml) K1: 3.6 ng/mL (≈ 10.5 nM)
[2]
  IC50 (ng/ml) NF54: 4.4 ng/mL (≈ 12.9 nM)
[3]
  Activity (%) po: 22%
  Activity (%) sc: 53%
  Survival (days) po: 5.7 days
  Survival (days) sc: 6.0 days

## O=C(OC1CCC2(CC1)OOC1(O2)C2CC3CC(C2)CC1C3)n1ccnc1 (centres unmarked) [OZ147]
[1]
  IC50 (ng/ml) K1: 1.1 ng/mL (≈ 2.94 nM)
[2]
  IC50 (ng/ml) NF54: 1.8 ng/mL (≈ 4.81 nM)
[3]
  Activity (%) po: 85%
  Activity (%) sc: 99.89%
  Activity (%) SSVpo: 71%
  Survival (days) po: 8.0 days
  Survival (days) sc: 19.7 days
  Survival (days) SSVpo: 8.0 days

## O=C(NC[C@H]1CC[C@]2(CC1)OOC1(O2)C2CC3CC(C2)CC1C3)c1cccc[n+]1[O-] (some centres unmarked) [OZ270]
[1]
  IC50 (ng/ml) K1: 0.85 ng/mL (≈ 2.05 nM)
[2]
  IC50 (ng/ml) NF54: 1.3 ng/mL (≈ 3.14 nM)
[3]
  Activity (%) po: 99.17%
  Activity (%) sc: 99.81%
  Activity (%) SSVpo: 99.47%
  Survival (days) po: 13.7 days
  Survival (days) sc: 11.3 days
  Survival (days) SSVpo: 12.3 days
